Test results from patent US20250195521A1 (Revolution Medicines, Inc., priority 2020, published 2025).
Read-outs that look alike come from different tables or passages of the source.

Legend:
[1] = target: KRAS G13D (Homo sapiens (Human), UniProt P01116+P62937, G13D); assay: Ras-Raf disruption/FRET/MOA assay (BRAF RBD, Cyclophilin A); assay type: biochemical; settings: read-out: KRAS G13D FRET data IC50
How it was run: (§1)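 Ras-GMPPNP (12.5 nM), BRAF RBD (50 nM) and 25 μM Cyclophilin A were incubated with compound for 3 h at 25° C, then detected 1.5 h with anti-His Eu and anti-GST APC; IC50 values follow from the reduced TR-FRET ratio.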

[2] = target: KRAS G12D (Homo sapiens (Human), UniProt P01116+P62937, G12D); assay: as above; assay type: biochemical; settings: read-out: KRAS G12D FRET IC50
How it was run: as §1

[3] = target: KRAS Q61H (Homo sapiens (Human), UniProt P01116+P62937, Q61H); assay: as above; assay type: biochemical
How it was run: as §1

[4] = target: KRAS G13C (Homo sapiens (Human), UniProt P01116+P62937, G13C); assay: as above; assay type: biochemical; settings: read-out: KRAS G13C FRET IC50
How it was run: as §1

[5] = target: KRAS WT (Homo sapiens (Human), UniProt P01116+P62937); assay: as above; assay type: biochemical; settings: read-out: KRAS WT FRET data IC50
How it was run: as §1

[6] = target: KRAS G12C (Homo sapiens (Human), UniProt P01116+P62937, G12C); assay: as above; assay type: biochemical; settings: read-out: KRAS G12C FRET IC50
How it was run: as §1

[7] = target: KRAS G12S (Homo sapiens (Human), UniProt P01116+P62937, G12S); assay: as above; assay type: biochemical; settings: read-out: KRAS G12S FRET IC50
How it was run: as §1

[8] = target: KRAS G12V (Homo sapiens (Human), UniProt P01116+P62937, G12V); assay: as above; assay type: biochemical; settings: read-out: KRAS G12V FRET IC50
How it was run: as §1

[9] = target: NRAS G12C (Homo sapiens (Human), UniProt P01111+P62937, G12C); assay: as above; assay type: biochemical; settings: read-out: NRAS G12C FRET data IC50
How it was run: (§2)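 Measured: compound-facilitated Cyclophilin A:Ras complex blocking RAF RBD binding. Conditions: 12.5 nM Ras-GMPPNP, 50 nM BRAF RBD, 25 μM CypA, 3 h plus 1.5 h detection. Output: IC50 from TR-FRET ratio.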

[10] = target: NRAS WT (Homo sapiens (Human), UniProt P01111+P62937); assay: as above; assay type: biochemical
How it was run: as §2

[11] = test system: NCI-H358 (K-Ras G12C); assay: CellTiter-Glo cell viability assay, NCI-H358; assay type: cell-based, human; settings: 5-day treatment, read-out: H358 Cell Viability assay data (K-Ras G12C, IC50)
How it was run: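 Viability read-out was luminescent (CellTiter-Glo) on day 5 of compound exposure in K-Ras G12C NCI-H358 cells. Values were expressed as percent of mean DMSO signal and fitted with a four-parameter logistic curve.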

[12] = target: NRAS Q61R (Homo sapiens (Human), UniProt P01111+P62937, Q61R); assay: Ras-Raf disruption/FRET/MOA assay (BRAF RBD, Cyclophilin A); assay type: biochemical
How it was run: as §2

Chain of KRAS WT (P01116 other isoform, or with tags, fused parts or gaps): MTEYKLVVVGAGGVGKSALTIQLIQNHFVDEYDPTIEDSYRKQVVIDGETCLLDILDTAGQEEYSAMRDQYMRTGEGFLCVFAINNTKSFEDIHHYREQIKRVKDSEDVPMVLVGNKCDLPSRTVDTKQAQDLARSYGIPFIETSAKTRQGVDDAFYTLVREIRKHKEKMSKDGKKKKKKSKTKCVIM
Chain of KRAS WT (P62937 whole entry): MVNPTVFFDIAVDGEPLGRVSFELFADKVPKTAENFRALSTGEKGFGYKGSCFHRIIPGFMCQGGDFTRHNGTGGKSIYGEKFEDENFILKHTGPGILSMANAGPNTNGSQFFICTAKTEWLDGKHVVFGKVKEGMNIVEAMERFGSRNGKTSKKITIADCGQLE
Chain of NRAS Q61R (P01111 whole entry Q61R): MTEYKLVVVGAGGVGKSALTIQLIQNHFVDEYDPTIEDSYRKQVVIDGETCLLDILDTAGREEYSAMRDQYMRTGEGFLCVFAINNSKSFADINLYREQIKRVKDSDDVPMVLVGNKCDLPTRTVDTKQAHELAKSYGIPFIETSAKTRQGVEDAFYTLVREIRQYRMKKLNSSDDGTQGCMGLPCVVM
Chain of NRAS Q61R (P62937 whole entry): as the sequence (P62937 whole entry) above
Chain of KRAS G12C (P01116-2 other isoform, or with tags, fused parts or gaps G12C): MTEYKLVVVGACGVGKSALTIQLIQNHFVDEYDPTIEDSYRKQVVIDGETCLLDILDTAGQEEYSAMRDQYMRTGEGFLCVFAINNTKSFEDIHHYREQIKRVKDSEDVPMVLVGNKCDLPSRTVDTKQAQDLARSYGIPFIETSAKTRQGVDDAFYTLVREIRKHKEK
Chain of KRAS G12C (P62937 whole entry): as the sequence (P62937 whole entry) above
Chain of NRAS WT (P01111 whole entry): as the sequence (P01111 whole entry Q61R) above, with R61Q counted along it
Chain of NRAS WT (P62937 whole entry): as the sequence (P62937 whole entry) above
Chain of KRAS G13C (P01116 other isoform, or with tags, fused parts or gaps G13C): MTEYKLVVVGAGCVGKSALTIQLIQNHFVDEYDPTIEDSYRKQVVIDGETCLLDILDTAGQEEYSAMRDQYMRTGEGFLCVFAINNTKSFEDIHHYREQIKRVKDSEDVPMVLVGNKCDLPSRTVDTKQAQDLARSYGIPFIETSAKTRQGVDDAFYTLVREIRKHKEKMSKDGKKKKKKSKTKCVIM
Chain of KRAS G13C (P62937 whole entry): as the sequence (P62937 whole entry) above
Chain of KRAS G13D (P01116 other isoform, or with tags, fused parts or gaps G13D): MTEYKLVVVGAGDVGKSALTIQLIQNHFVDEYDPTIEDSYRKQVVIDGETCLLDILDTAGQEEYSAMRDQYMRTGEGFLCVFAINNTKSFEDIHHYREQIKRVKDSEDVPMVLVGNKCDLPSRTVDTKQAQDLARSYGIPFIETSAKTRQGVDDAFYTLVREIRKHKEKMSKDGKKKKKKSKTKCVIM
Chain of KRAS G13D (P62937 whole entry): as the sequence (P62937 whole entry) above
Chain of NRAS G12C (P01111 whole entry G12C): as the sequence (P01111 whole entry Q61R) above, with G12C, R61Q counted along it
Chain of NRAS G12C (P62937 whole entry): as the sequence (P62937 whole entry) above
Chain of KRAS G12V (P01116 other isoform, or with tags, fused parts or gaps G12V): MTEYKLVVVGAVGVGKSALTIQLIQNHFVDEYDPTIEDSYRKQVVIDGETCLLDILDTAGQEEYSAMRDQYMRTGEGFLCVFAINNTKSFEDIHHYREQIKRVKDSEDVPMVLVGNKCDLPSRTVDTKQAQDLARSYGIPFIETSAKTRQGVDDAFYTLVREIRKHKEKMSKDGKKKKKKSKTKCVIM
Chain of KRAS G12V (P62937 whole entry): as the sequence (P62937 whole entry) above
Chain of KRAS G12D (P01116 other isoform, or with tags, fused parts or gaps G12D): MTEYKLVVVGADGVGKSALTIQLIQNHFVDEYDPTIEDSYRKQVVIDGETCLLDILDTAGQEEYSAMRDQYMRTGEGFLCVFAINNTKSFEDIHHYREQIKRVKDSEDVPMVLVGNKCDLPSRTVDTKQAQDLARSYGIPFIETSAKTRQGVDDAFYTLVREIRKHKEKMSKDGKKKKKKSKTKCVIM
Chain of KRAS G12D (P62937 whole entry): as the sequence (P62937 whole entry) above
Chain of KRAS Q61H (P01116 other isoform, or with tags, fused parts or gaps Q61H): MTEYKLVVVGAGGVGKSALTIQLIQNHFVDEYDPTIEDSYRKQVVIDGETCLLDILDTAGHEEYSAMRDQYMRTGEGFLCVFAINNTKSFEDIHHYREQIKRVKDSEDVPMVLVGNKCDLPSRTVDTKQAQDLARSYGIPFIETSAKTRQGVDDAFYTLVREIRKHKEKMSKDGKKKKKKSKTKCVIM
Chain of KRAS Q61H (P62937 whole entry): as the sequence (P62937 whole entry) above
Chain of KRAS G12S (P01116 other isoform, or with tags, fused parts or gaps G12S): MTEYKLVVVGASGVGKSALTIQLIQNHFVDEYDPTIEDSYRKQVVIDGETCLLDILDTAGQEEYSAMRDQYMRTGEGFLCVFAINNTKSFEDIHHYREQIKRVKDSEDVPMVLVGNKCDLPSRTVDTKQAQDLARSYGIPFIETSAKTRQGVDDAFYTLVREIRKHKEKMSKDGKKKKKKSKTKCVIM
Chain of KRAS G12S (P62937 whole entry): as the sequence (P62937 whole entry) above

| SMILES | IC50 [1] | IC50 [2] | IC50 [3] | IC50 [4] | IC50 [5] | IC50 [6] | IC50 [7] | IC50 [8] | IC50 [9] | IC50 [10] | IC50 ([11]; Homo sapiens, NCI-H358, 120 h) | IC50 [12] | IC50 [11] |
| --- | --- | --- | --- | --- | --- | --- | --- | --- | --- | --- | --- | --- | --- |
| CCn1c(-c2cccnc2[C@H](C)OC)c2c3cc(ccc31)-c1cc(O)cc(c1)C[C@H](NC(=O)[C@H](C(C)C)N(C)C(=O)C1CN3CCCN1CC3)C(=O)N1CCC[C@H](N1)C(=O)OCC(C)(C)C2 (stereo partly drawn) [Compound A404] | 100 to 1000 nM | 100 to 1000 nM |  | 100 to 1000 nM | 100 to 1000 nM | 100 to 1000 nM | 100 to 1000 nM | 1000 to 10000 nM | 100 to 1000 nM |  | 10 to 100 nM |  |  |
| CCn1c(-c2cccnc2[C@H](C)OC)c2c3cc(ccc31)-c1cc(O)cc(c1)C[C@H](NC(=O)[C@H](C(C)C)N(C)C(=O)[C@H]1OCC[C@H]1c1ccccc1)C(=O)N1CCC[C@H](N1)C(=O)OCC(C)(C)C2 [Compound A425] | 1000 to 10000 nM | 1000 to 10000 nM |  | 100 to 1000 nM | 1000 to 10000 nM | 100 to 1000 nM | 1000 to 10000 nM | 100 to 1000 nM | 1000 to 10000 nM |  | < 10 nM |  |  |
| CCO[C@@H]1c2nc(cs2)-c2ccc3c(c2)c(c(-c2cc(C4CCN(C5COC5)CC4)cnc2[C@H](C)OC)n3CC)CC(C)(C)COC(=O)[C@@H]2CCCN(N2)C(=O)[C@H]1NC(=O)[C@H]1[C@H](C)[C@@H]1C [Compound A449, (1r,2R,3S)—N-((6^3S,3S,4S,Z)-3-ethoxy-1^1-ethyl-1^2-(2-((S)-1-methoxyethyl)-5-(1-(oxetan-3-yl)piperidin-4-yl)pyridin-3-yl)-10,10-dimethyl-5,7-dioxo-6^1,6^2,6^3,6^4,6^5,6^6-hexahydro-1^1H-8-oxa-2 (4,2)-thiazola-1 (5,3)-indola-6 (1,3)-pyridazinacycloundecaphane-4-yl)-2,3-dimethylcyclopropane-1-carboxamide] |  | 1000 to 10000 nM | 100 to 1000 nM | 100 to 1000 nM |  | 100 to 1000 nM | 1000 to 10000 nM | 1000 to 10000 nM |  |  |  |  | 10 to 100 nM |
| CCn1c(-c2cccnc2[C@H](C)OC)c2c3cc(ccc31)-c1csc(n1)[C@@H](OCC1CCN(C)CC1)[C@H](NC(=O)[C@H]1C[C@@H]1C)C(=O)N1CCC[C@H](N1)C(=O)OCC(C)(C)C2 [Compound A451, (1S,2S)—N-((6^3S,3S,4S,Z)-1^1-ethyl-1^2-(2-((S)-1-methoxyethyl)pyridin-3-yl)-10,10-dimethyl-3-((1-methylpiperidin-4-yl)methoxy)-5,7-dioxo-6^1,6^2,6^3,6^4,6^5,6^6-hexahydro-1^1H-8-oxa-2 (4,2)-thiazola-1 (5,3)-indola-6 (1,3)-pyridazinacycloundecaphane-4-yl)-2-methylcyclopropane-1-carboxamide] |  | 1000 to 10000 nM | 100 to 1000 nM | 100 to 1000 nM |  | 100 to 1000 nM | 100 to 1000 nM | 100 to 1000 nM |  |  |  |  | 10 to 100 nM |
| CCOC1c2nc(cs2)-c2ccc3c(c2)c(c(-c2cc(C4CC5COCC(C4)N5C4CC4)cnc2C(C)OC)n3CC)CC(C)(C)COC(=O)C2CCCN(N2)C(=O)C1NC(=O)C1C(C)C1C [Compound A483, (1r,2R,3S)—N-((6^3S,3S,4S,Z)-12-(5-((1R,5S,7s)-9-cyclopropyl-3-oxa-9-azabicyclo[3.3.1]nonan-7-yl)-2-((S)-1-methoxyethyl)pyridin-3-yl)-3-ethoxy-1^1-ethyl-10,10-dimethyl-5,7-dioxo-6^1,6^2,6^3,6^4,6^5,6^6-hexahydro-1^1H-8-oxa-2 (4,2)-thiazola-1 (5,3)-indola-6 (1,3)-pyridazinacycloundecaphane-4-yl)-2,3-dimethylcyclopropane-1-carboxamide] |  | 10 to 100 nM | 10 to 100 nM | 100 to 1000 nM |  | 10 to 100 nM | 10 to 100 nM | 100 to 1000 nM |  |  |  |  | < 10 nM |
| CCn1c(-c2cccnc2[C@H](C)OC)c2c3cc(ccc31)-c1csc(n1)C[C@H](NC(=O)[C@H](C(C)C)N(C)C(=O)N1CC([C@H](C)COC)C1)C(=O)N1CCC[C@H](N1)C(=O)OCC(C)(C)C2 [Compound A533] | 100 to 1000 nM | 100 to 1000 nM | 10 to 100 nM | 100 to 1000 nM | 100 to 1000 nM | 10 to 100 nM | 100 to 1000 nM | 100 to 1000 nM | 10 to 100 nM | 10 to 100 nM | < 10 nM | 100 to 1000 nM |  |
| CCn1c(-c2cccnc2[C@H](C)OC)c2c3cc(ccc31)-c1cc(O)cc(c1)C[C@H](NC(=O)[C@H](C(C)C)N(C)C(=O)[C@@H]1OCC[C@H]1c1ccccc1)C(=O)N1CCC[C@H](N1)C(=O)OCC(C)(C)C2 [Compound A584] | 10 to 100 nM | 10 to 100 nM | 10 to 100 nM | 10 to 100 nM | 10 to 100 nM | 10 to 100 nM | 10 to 100 nM | 10 to 100 nM | 10 to 100 nM | 10 to 100 nM | < 10 nM |  |  |

Further lines, with some results ahead:

| IC50 [1] | IC50 [2] | IC50 [3] | IC50 [4] | IC50 [5] | IC50 [6] | IC50 [7] | IC50 [8] | IC50 [9] | IC50 [10] | IC50 ([11]; Homo sapiens, NCI-H358, 120 h) | IC50 [12] | SMILES | IC50 [11] |
| --- | --- | --- | --- | --- | --- | --- | --- | --- | --- | --- | --- | --- | --- |
| 100 to 1000 nM | 100 to 1000 nM | 10 to 100 nM | 100 to 1000 nM | 10 to 100 nM | 10 to 100 nM | 10 to 100 nM | 100 to 1000 nM | 10 to 100 nM | 10 to 100 nM | < 10 nM |  | CCn1c(-c2cccnc2[C@H](C)OC)c2c3cc(ccc31)-c1csc(n1)C[C@H](NC(=O)[C@H](C(C)C)N(C)C(=O)N1CCN(C(C)=O)CC1)C(=O)N1CCC[C@H](N1)C(=O)OCC(C)(C)C2 [Compound A291] |  |
| 10 to 100 nM | 100 to 1000 nM | 10 to 100 nM | 10 to 100 nM | 10 to 100 nM | 10 to 100 nM | 10 to 100 nM | 100 to 1000 nM | 10 to 100 nM | 10 to 100 nM | 10 to 100 nM | 100 to 1000 nM | CCn1c(-c2cccnc2[C@H](C)OC)c2c3cc(ccc31)-c1cc(O)cc(c1)C[C@H](NC(=O)[C@H](C(C)C)N(C)C(=O)C1CCC3(CCOC3)O1)C(=O)N1CCC[C@H](N1)C(=O)OCC(C)(C)C2 (stereo partly drawn) [Compound A409] |  |
| 100 to 1000 nM | 100 to 1000 nM |  | 100 to 1000 nM | 100 to 1000 nM | 100 to 1000 nM | 100 to 1000 nM | 1000 to 10000 nM | 100 to 1000 nM |  | 10 to 100 nM |  | CCn1c(-c2cccnc2[C@H](C)OC)c2c3cc(ccc31)-c1cc(O)cc(c1)C[C@H](NC(=O)[C@H](C(C)C)N(C)C(=O)[C@@H]1[C@H]3CC[C@H](C3)[C@@H]1N)C(=O)N1CCC[C@H](N1)C(=O)OCC(C)(C)C2 [Compound A417] |  |
| 100 to 1000 nM | 100 to 1000 nM | 10 to 100 nM | 100 to 1000 nM | 100 to 1000 nM | 10 to 100 nM | 100 to 1000 nM | 100 to 1000 nM | 10 to 100 nM | 100 to 1000 nM | < 10 nM | 100 to 1000 nM | CCn1c(-c2cccnc2[C@H](C)OC)c2c3cc(ccc31)-c1csc(n1)C[C@H](NC(=O)[C@H](C(C)C)N(C)C(=O)N1C[C@@H]3OCCN(C)[C@@H]3C1)C(=O)N1CCC[C@H](N1)C(=O)OCC(C)(C)C2 [Compound A444] |  |
| 100 to 1000 nM | 100 to 1000 nM | 10 to 100 nM | 100 to 1000 nM | 100 to 1000 nM | 10 to 100 nM | 100 to 1000 nM | 100 to 1000 nM | 10 to 100 nM | 10 to 100 nM | < 10 nM |  | CCn1c(-c2cc(N3CCN(C)CC3)cnc2[C@H](C)OC)c2c3cc(ccc31)-c1csc(n1)C[C@H](NC(=O)[C@H](C(C)C)N(C)C(=O)N1CC(OC)C1)C(=O)N1CCC[C@H](N1)C(=O)OCC(C)(C)C2 [Compound A466] |  |
| 1000 to 10000 nM | 1000 to 10000 nM | 10 to 100 nM | 100 to 1000 nM | 100 to 1000 nM | 100 to 1000 nM | 100 to 1000 nM | 100 to 1000 nM | 100 to 1000 nM | 100 to 1000 nM | 10 to 100 nM | 100 to 1000 nM | CCn1c(-c2cccnc2[C@H](C)OC)c2c3cc(ccc31)-c1csc(n1)C[C@H](NC(=O)[C@H](C(C)C)N(C)C(=O)N1CCC13CCS(=O)(=O)CC3)C(=O)N1CCC[C@H](N1)C(=O)OCC(C)(C)C2 [Compound A530] |  |
